Where no end group is shown, it is not given here. [ ]: non-standard residue; d: D form. Pen = CC(C)(S)[C@H](N)C(=O)O
Legend:
[1] = test system: attachment of normal rat kidney cells to fibronectin; test: Cell adhesion assay: inhibition of attachment of normal rat kidney cells to fibronectin; assay type: cell-based; conditions: fibronectin-coated wells, peptide 0 to 10.0 mM, FIG. 2
Protocol: (§1) Fibronectin and vitronectin were purified from human plasma according to the methods of Ruoslahti et al., (1982) Meth. Enz. 82:803; and Hayman et al., (1983) PNAS 80:4003, respectively, both of which are incorporated herein by reference. The adhesion of normal rat kidney cells to fibronectin and vitronectin was assayed as described in Ruoslahti et al., Meth. Enz. supra. Briefly, 0.1 ml solution of fibronectin or vitronectin at a concentration of 12 μg/ml in 0.1M PBS was placed in each well of 96-well plastic microtiter plates and left for 2 hours at room temperature. The unattached protein was removed by washing three times with PBS.
(§2) One day before the assay, a confluent culture of normal rat kidney cells was split 1:2 using standard tissue culture trypsin. The cells were washed three times with PBS, pH 7.2. […] Before the last centrifugation, a sample was taken and cell numbers and viability by trypan blue exclusion are determined. […]
(§3) The unattached cells were removed simply by removing the medium and washing the wells. […] The cells were then fixed with 3% paraformaldehyde in PBS and stained with 1% toluidine blue, paraformaldehyde in PBS, and attached cells counted. Their number was determined using a cell counter that is capable of counting cells attached to a surface (Dynatech Laboratories, Alexandria, Va.). […]

[2] = test system: attachment of normal rat kidney cells to vitronectin; test: Cell adhesion assay: inhibition of attachment of normal rat kidney cells to vitronectin; assay type: cell-based; conditions: vitronectin-coated wells, peptide 0 to 10.0 mM, FIG. 2
Protocol: as §1, §2, §3

Substance: G[Pen]GRGDSPC (cysteine pairing not given here) [linear peptide]
- inhibition of attachment to fibronectin [1]: inhibited attachment of cells to both substrates at relatively similar concentrations
- inhibition of attachment to vitronectin [2]: inhibited attachment of cells to both substrates at relatively similar concentrations
